Earlier results on 3 molecules are cited in US20240139123A1, “COMPOSITIONS AND METHODS FOR IMPROVING BRAIN FUNCTION” (Health Via Modern Nutrition Inc., priority 2021, published 2024).

Molecules are shown by their SMILES.

For data set [1] the following is noted: rats, diet supplemented as 30% of calories.
The subject of another data set is NF-κB activation. The settings on record: in vitro.
For data set [2] the following is noted: animal models.
The conditions of data set [3]: Schizophrenia-like rat model.
For data set [4] the following is noted: animal and in vitro studies.
For data set [5] the following is noted: patient with Alzheimer's disease dementia, 20-month oral administration.

In the case of `C[C@@H](O)CCOC(=O)C[C@@H](C)O` [(R)-3-hydroxyburyl (R)-3-hydroxybutyrate], in data set [1], the “cognitive and physical performance” value was “improved cognitive and physical performance”.
On to `C=C(C)[C@@H]1CCC(C)=C[C@H]1c1c(O)cc(CCCCC)cc1O` [CBD, cannabidiol], for which, in the data set with NF-κB activation, the NF-κB activation entry was “inhibits” and the “reactive oxygen species (ROS) production by mitochondria” value is “inhibits”. The “anti-anxiety and antidepressant effects” value in data set [2] was “exhibited an anti-anxiety and antidepressant effects”. Further, the “cognitive impairment and cortical transcriptional changes” value in data set [3] was “improve cognitive impairment and reverse cortical transcriptional changes”. In addition, the anti-inflammatory properties entry in data set [4] is reported as “strong anti-inflammatory properties”.
As to `C[C@@H](O)CCOC(=O)C[C@@H](C)O` [ketone monoester], the “mood, affect, self-care, cognitive and daily activity performance” value in data set [5] is “improved markedly in mood, affect, self-care, and cognitive and daily activity performance”.
